In ChEMBL document CHEMBL1127465, “Rational design, synthesis, and crystallographic analysis of a hydroxyethylene-based HIV-1 protease inhibitor containing a heterocyclic P1'--P2' amide bond isostere” (J Med Chem, 1994):

Each molecule was assayed against Human immunodeficiency virus type 1 protease (Human immunodeficiency virus 1, UniProt Q72874) (assay: Apparent inhibition constant against recombinant HIV-1 protease).

SMILES	Ki [nM]
CC(=O)c1c[nH]c([C@H](Cc2ccccc2)C[C@H](O)[C@H](Cc2ccccc2)NC(=O)OC(C)(C)C)n1	370
CC(C)C(O)c1cnc([C@H](Cc2ccccc2)C[C@H](O)[C@H](Cc2ccccc2)NC(=O)OC(C)(C)C)[nH]1 (stereo not given in full)	2700
CC(C)(C)OC(=O)N[C@@H](Cc1ccccc1)[C@@H](O)C[C@@H](Cc1ccccc1)c1nc(C=O)c[nH]1	3500
CC(C)(C)OC(=O)N[C@@H](Cc1ccccc1)C(=O)C(O)CN[C@@H](Cc1ccccc1)C(=O)NCC(N)=O (stereo not given in full)	120
CC(C)C(=O)c1cnc([C@H](Cc2ccccc2)C[C@H](O)[C@H](Cc2ccccc2)NC(=O)OC(C)(C)C)[nH]1	83
C=CC(C)(C)C(=O)c1cnc([C@H](Cc2ccccc2)C[C@H](O)[C@H](Cc2ccccc2)NC(=O)OC(C)(C)C)[nH]1	270
CC(C)[C@@H](NC(=O)[C@@H](Cc1ccccc1)NCC(O)C(=O)[C@H](Cc1ccccc1)NC(=O)[C@H](C)NC(=O)OCc1ccccc1)C(=O)O (stereo not given in full)	0.7
CCCC(=O)c1c[nH]c([C@H](Cc2ccccc2)C[C@H](O)[C@H](Cc2ccccc2)NC(=O)OC(C)(C)C)n1	150
CC(O)c1cnc([C@H](Cc2ccccc2)C[C@H](O)[C@H](Cc2ccccc2)NC(=O)OC(C)(C)C)[nH]1 (stereo not given in full)	13300
CCC(=O)c1cnc([C@H](Cc2ccccc2)C[C@H](O)[C@H](Cc2ccccc2)NC(=O)OC(C)(C)C)[nH]1	92
